Data from publication PMC2806602 (The Journal of neuroscience : the official journal of the …, 2009).
Residue numbers refer to the chain shown, from its start. Where two headings read alike, the source gives them in different places.

Assays:
Type in all cases: cell-based
GluRδ2^Lc D782A = biological target: T1, GluRδ2^Lc D782A (Rattus norvegicus, UniProt Q63226, A654T/D782A); assay: Two-electrode voltage-clamp recordings in Xenopus oocytes, GluRδ2^Lc D782A
T1 sequence (Q63226 24-1007 A654T/D782A): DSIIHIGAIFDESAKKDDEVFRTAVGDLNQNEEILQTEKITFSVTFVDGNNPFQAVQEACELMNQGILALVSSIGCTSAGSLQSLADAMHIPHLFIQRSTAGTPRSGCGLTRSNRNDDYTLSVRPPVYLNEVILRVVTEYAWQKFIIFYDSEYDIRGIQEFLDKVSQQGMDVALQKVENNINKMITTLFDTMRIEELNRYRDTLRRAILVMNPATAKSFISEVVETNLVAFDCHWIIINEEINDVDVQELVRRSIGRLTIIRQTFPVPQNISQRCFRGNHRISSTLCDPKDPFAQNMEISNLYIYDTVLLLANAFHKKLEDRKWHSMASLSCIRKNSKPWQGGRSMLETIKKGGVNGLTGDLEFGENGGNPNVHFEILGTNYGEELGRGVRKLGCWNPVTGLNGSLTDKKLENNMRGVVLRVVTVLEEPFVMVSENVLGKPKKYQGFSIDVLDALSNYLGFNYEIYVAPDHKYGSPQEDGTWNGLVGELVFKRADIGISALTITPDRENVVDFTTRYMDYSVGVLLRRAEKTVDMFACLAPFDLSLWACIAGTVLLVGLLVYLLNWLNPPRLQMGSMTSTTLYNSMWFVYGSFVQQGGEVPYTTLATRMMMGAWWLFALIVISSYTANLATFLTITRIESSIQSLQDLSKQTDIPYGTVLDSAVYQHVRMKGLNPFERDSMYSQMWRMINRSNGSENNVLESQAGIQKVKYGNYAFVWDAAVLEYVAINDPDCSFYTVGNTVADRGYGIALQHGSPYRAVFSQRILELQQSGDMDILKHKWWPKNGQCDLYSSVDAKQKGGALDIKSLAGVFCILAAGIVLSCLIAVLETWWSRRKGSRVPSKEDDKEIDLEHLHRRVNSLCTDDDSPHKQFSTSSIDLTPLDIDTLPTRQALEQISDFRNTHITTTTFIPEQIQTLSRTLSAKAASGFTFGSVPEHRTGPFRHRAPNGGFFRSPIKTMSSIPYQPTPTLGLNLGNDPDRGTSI

GluRδ2^Lc E531A+D535A = biological target: T2, GluRδ2^Lc E531A+D535A (Rattus norvegicus, UniProt Q63226, A654T/D535A/E531A); assay: Two-electrode voltage-clamp recordings in Xenopus oocytes, GluRδ2^Lc E531A+D535A
T2 sequence (Q63226 24-1007 E531A/D535A/A654T): T1 sequence (Q63226 24-1007 A654T/D782A) with E508A, D512A, A759D

GluRδ2^Lc = biological target: T3, GluRδ2^Lc (Rattus norvegicus, UniProt Q63226, A654T)
T3 sequence (Q63226 24-1007 A654T): T1 sequence (Q63226 24-1007 A654T/D782A) with A759D

D-serine + 0 mM Ca^2+ nH (GluRδ2^Lc D782A; Hill slope, 0 mM Ca^2+)	D-serine + 3 mM Ca^2+ nH (GluRδ2^Lc D782A; Hill slope, 3 mM Ca^2+)	D-serine + 0 mM Ca^2+ nH (GluRδ2^Lc E531A+D535A; Hill slope, 0 mM Ca^2+)	D-serine + 3 mM Ca^2+ nH (GluRδ2^Lc E531A+D535A; Hill slope, 3 mM Ca^2+)	D-serine + 0 mM Ca^2+ nH (GluRδ2^Lc; Hill slope, 0 mM Ca^2+)	D-serine + 3 mM Ca^2+ nH (GluRδ2^Lc; Hill slope, 3 mM Ca^2+)	Ca^2+ potentiation (relative to baseline) (GluRδ2^Lc D782A; 3 mM Ca^2+, ± SEM) [fold]	Ca^2+ potentiation (relative to baseline) (GluRδ2^Lc E531A+D535A; 3 mM Ca^2+, ± SEM) [fold]	spontaneously active current relative to baseline with Ba^2+ (GluRδ2^Lc; 0.5 mM Ba^2+ exchanged with 0.5 mM of the divalent cation)	Ca^2+ potentiation (relative to baseline) (GluRδ2^Lc; 3 mM Ca^2+, baseline spontaneously active current, ± SEM) [fold]	maximal fold potentiation relative to baseline spontaneously active currents (GluRδ2^Lc; Ca^2+ concentration-response, fitted maximum) [fold]	nH of reduction of D-serine potency by extracellular Ca^2+ (GluRδ2^Lc; Hill coefficient)	nH of Ca^2+ potentiation of GluRδ2^Lc currents (GluRδ2^Lc; Hill coefficient, in the absence of D-serine)	nH of Ca^2+ potentiation of GluRδ2^Lc currents (GluRδ2^Lc; Hill coefficient, in the presence of 1 mM D-serine)	EC50 (GluRδ2^Lc; read-out: EC50 of Ca^2+ to potentiate GluRδ2^Lc currents, in the presence of 1 mM D-serine) [µM]	EC50 (GluRδ2^Lc; read-out: EC50 of Ca^2+ to potentiate spontaneously active GluRδ2^Lc currents, in the absence of D-serine) [µM]	SMILES
1.0	1.1	2.2	2.2	1.0	2.1											N[C@H](CO)C(=O)O [D-serine]
						0.8 ± 0.02	1.0 ± 0.04	3.91 ± 0.22	3.8 ± 0.23	4.1 ± 0.2	1.3	1.7	2.3	676 ± 13	205 ± 7	[Ca+2] [Ca^2+, calcium]
